Data taken from the NIST ThermoML archive (doi:10.1007/s10765-007-0223-x).

Key:
[1] = 101 kPa, Liquid; for speed of sound: Single path-length method
[2] = xn = mol fraction of the nth substance listed; details: 101 kPa, Liquid, x2 = 0; for speed of sound: Single path-length method

c1ccccc1 [benzene]
[1]
Details	mass density [kg/m3]	speed of sound [m/s]
288.15 K	884.183	1345.5
290.65 K	881.521	1333.4
293.15 K	878.856	1321.6
295.65 K	876.19	1309.9
298.15 K	873.52	1298.3
300.65 K	870.847	1286.7
303.15 K	868.172	1275.1
305.65 K	865.49	1263.6
308.15 K	862.805	1252.1
310.65 K	860.118	1240.7
313.15 K	857.425	1229.3
315.65 K	854.73	1217.9
318.15 K	852.032	1206.7
320.65 K	849.331	1195.5
323.15 K	846.641	1184.6

c1ccccc1 [benzene] + COC(C)(C)C
[2]
Details	mass density [kg/m3]	speed of sound [m/s]
288.15 K	884.183	1345.5
290.65 K	881.521	1333.4
293.15 K	878.856	1321.6
295.65 K	876.19	1309.9
298.15 K	873.52	1298.3
300.65 K	870.847	1286.7
303.15 K	868.172	1275.1
305.65 K	865.49	1263.6
308.15 K	862.805	1252.1
310.65 K	860.118	1240.7
313.15 K	857.425	1229.3
315.65 K	854.73	1217.9
318.15 K	852.032	1206.7
320.65 K	849.331	1195.5
323.15 K	846.641	1184.6

CCc1ccccc1 [ethylbenzene]
[1]
Details	mass density [kg/m3]	speed of sound [m/s]
288.15 K	871.245	1360.7
290.65 K	869.052	1349.9
293.15 K	866.856	1339.4
295.65 K	864.66	1328.9
298.15 K	862.459	1318.4
300.65 K	860.256	1307.9
303.15 K	858.047	1297.5
305.65 K	855.837	1287.1
308.15 K	853.622	1276.8
310.65 K	851.407	1266.5
313.15 K	849.186	1256.3
315.65 K	846.964	1246.1
318.15 K	844.741	1236.1
320.65 K	842.518	1226.1
323.15 K	840.306	1216.3

Cc1ccccc1 [toluene]
[1]
Details	mass density [kg/m3]	speed of sound [m/s]
288.15 K	871.457	1347.5
290.65 K	869.144	1336.3
293.15 K	866.823	1325.3
295.65 K	864.5	1314.3
298.15 K	862.173	1303.4
300.65 K	859.845	1292.6
303.15 K	857.513	1281.9
305.65 K	855.175	1271.2
308.15 K	852.838	1260.5
310.65 K	850.494	1249.8
313.15 K	848.146	1239.2
315.65 K	845.794	1228.6
318.15 K	843.437	1218
320.65 K	841.075	1207.3
323.15 K	838.706	1196.6

Cc1ccccc1 [toluene] + COC(C)(C)C
[2]
Details	mass density [kg/m3]	speed of sound [m/s]
288.15 K	871.457	1347.5
290.65 K	869.144	1336.3
293.15 K	866.823	1325.3
295.65 K	864.5	1314.3
298.15 K	862.173	1303.4
300.65 K	859.845	1292.6
303.15 K	857.513	1281.9
305.65 K	855.175	1271.2
308.15 K	852.838	1260.5
310.65 K	850.494	1249.8
313.15 K	848.146	1239.2
315.65 K	845.794	1228.6
318.15 K	843.437	1218
320.65 K	841.075	1207.3
323.15 K	838.706	1196.6
